Assay results as given in PMC6270420, “Antibacterial Activity of Salicylanilide 4-(Trifluoromethyl)benzoates” (Molecules, 2013).
Converted amounts (≈) assume the structure as drawn. Like-named read-outs stand apart in the source and are kept apart here.

Assays:
[1] = test system: Gram-positive cocci including MRSA; test: Antibacterial microdilution, summary for Gram-positive cocci; format: cell-based; details: Staphylococcus aureus, read-out: MICs against Gram-positive cocci
Protocol: (§1) The in vitro antibacterial activity was assayed against eight Gram-positive and Gram-negative strains: Staphylococcus aureus CCM 4516/08, methicillin-resistant Staphylococcus aureus H 5996/08 (MRSA), Staphylococcus epidermidis H 6966/08, Enterococcus sp. J 14365/08; Escherichia coli CCM 4517, Klebsiella pneumoniae D 11750/08, ESBL-positive Klebsiella pneumoniae J 14368/08, and Pseudomonas aeruginosa CCM 1961.
(§2) The microdilution broth method modified according to standard M07-A07 in Mueller-Hinton broth (HiMedia Laboratories, Mumbai, India) adjusted to pH 7.4 (±0.2) was used. The tested compounds were dissolved in DMSO to the final concentrations ranging from […]. Benzylpenicillin (penicillin G) was used as a comparative drug. Bacterial inoculum in sterile water was prepared to match 0.5 McFarland scale ([…]). The minimum inhibitory concentrations were assayed as 90% (IC90) or higher reduction of growth when compared to the control. The determination of results was performed visually and spectrophotometrically (at 540 nm). The values of MICs were determined after 24 and 48 h of incubation in the darkness at 35 °C (±0.1) in a humid atmosphere.

[2] = target: T1, mycobacterial isocitrate lyase (ICL1, Rv0467) (Mycobacterium tuberculosis, UniProt P9WKK7); test: Isocitrate lyase inhibition assay (ICL1); format: biochemical, Mycobacterium tuberculosis H37Rv; details: 10 μmol/L; read-out: % ICL inhibition at 10 μmol/L (± standard deviation)
T1 construct: His tag (from pET-28b(+)); made in house; host or cells: E. coli BL21(DE3), pET-28b(+) plasmid
T1 sequence (P9WKK7 1-428): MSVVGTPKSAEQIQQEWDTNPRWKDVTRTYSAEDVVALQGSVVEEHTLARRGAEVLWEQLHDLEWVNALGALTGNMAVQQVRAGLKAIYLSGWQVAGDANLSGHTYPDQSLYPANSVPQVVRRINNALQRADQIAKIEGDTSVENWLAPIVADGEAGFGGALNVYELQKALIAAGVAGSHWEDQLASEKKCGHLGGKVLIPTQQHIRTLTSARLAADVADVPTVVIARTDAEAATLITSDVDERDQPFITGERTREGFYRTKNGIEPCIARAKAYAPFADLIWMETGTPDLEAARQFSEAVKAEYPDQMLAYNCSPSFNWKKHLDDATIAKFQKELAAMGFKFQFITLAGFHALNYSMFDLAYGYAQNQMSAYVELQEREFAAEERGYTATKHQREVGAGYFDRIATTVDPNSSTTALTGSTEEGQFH

[3] = test system: Mycobacterium kansasii 235/80; test: Antimycobacterial MIC micromethod; format: cell-based; details: read-out: MIC M. kansasii 235/80
[4] = test system: Escherichia coli CCM 4517; test: Antibacterial microdilution broth method; format: cell-based
Protocol: as §1, §2

[5] = test system: Staphylococcus aureus CCM 4516/08; test: Antibacterial microdilution broth method; format: cell-based; details: read-out: MIC/IC90 S. aureus CCM 4516/08
Protocol: as §1, §2

[6] = test system: Enterococcus sp. J 14365/08; test: Antibacterial microdilution broth method; format: cell-based; details: read-out: MIC/IC90 Enterococcus sp. J 14365/08
Protocol: as §1, §2

[7] = test system: methicillin-resistant Staphylococcus aureus H 5996/08 (MRSA); test: Antibacterial microdilution broth method; format: cell-based; details: read-out: MIC/IC90 MRSA H 5996/08
Protocol: as §1, §2

[8] = test system: Staphylococcus epidermidis H 6966/08; test: Antibacterial microdilution broth method; format: cell-based; details: read-out: MIC/IC90 S. epidermidis H 6966/08
Protocol: as §1, §2

[9] = test system: Mycobacterium avium 330/88; test: Antimycobacterial MIC micromethod; format: cell-based
[10] = test system: Mycobacterium tuberculosis 331/88 (H37Rv); test: Antimycobacterial MIC micromethod, Šula's medium; format: cell-based; details: read-out: MIC Mtb. 331/88
[11] = test system: M. kansasii 6509/96 (clinically isolated strain); test: Antimycobacterial MIC micromethod; format: cell-based; details: Mycobacterium kansasii, read-out: MIC M. kansasii 6509/96
HepG2 cells = test: Cytotoxicity evaluation (CellTiter 96 MTS); format: cell-based, human; details: Homo sapiens, HepG2; 24 h, cytotoxicity; read-out: IC50 HepG2
Protocol: Seven esters and their parent salicylanilides with the most robust antimicrobial activity were tested for cytotoxicity in the human hepatocellular liver carcinoma cell line HepG2 (passages 21–24; ECACC, Salisbury, UK) using a standard colorimetric method measuring a tetrazolium salt reduction (CellTiter(R) 96 AQueous One Solution Assay, Promega G3580, Madison, WI, USA).
The cells were routinely cultured in Minimum Essentials Eagle Medium (Sigma-Aldrich, Darmstadt, Germany) supplemented with 10% foetal bovine serum (PAA; Biotech, Prague, Czech Republic), 1% of L-glutamine solution (Sigma-Aldrich), and non-essential amino acids solution (Sigma-Aldrich) in a humidified atmosphere containing 5% CO2 at 37 °C. For subculturing, the cells were harvested after trypsin/EDTA (Sigma-Aldrich) treatment at 37 °C. The cells treated with the tested substances were used as experimental groups. Untreated HepG2 cells were used as control groups.
The cells were seeded in density 1 × 10^4 cells per well in a 96-well plate with microscopic control. Next day, the cells were treated with each of the tested substances. […] The most of the tested compounds were prepared in incubation concentrations of 0.01–20 µM in triplicates. 4-(Trifluoromethyl)benzoic acid was applied in the concentrations of 10–4,000 µM in triplicates. The following types of controls were included: determination of 100% viability and 0% viability (the cells treated by 10% DMSO), no cell control and vehiculum controls. These checking samples were prepared in triplicates.
The treated cells were incubated together with controls at 37 °C for 24 h in 5% CO2 atmosphere. After this time reagent from the kit CellTiter 96 AQueous One Solution Cell Proliferation Assay was added. The CellTiter 96 assay is based on the reduction of tetrazolium salt MTS [3-(4,5-dimethylthiazol-2-yl)-5-(3-carboxymethoxyphenyl)-2-(4-sulfophenyl)-2H-tetrazolium] to water-soluble formazan dye by metabolically active cells. The reduction of the reagent is attributed to availability of NADH or NADPH. The decline in levels of these metabolically important compounds in the cell causes that the production of formazan is reduced. The tested plate was incubated for 2 h at 37 °C and 5% CO2 and after this time, the absorbance was recorded at 490 nm using a 96-well plate reader (TECAN, Infinite M200, Grödig, Austria).
The results were expressed as inhibitory concentration which is necessary to inhibit cell viability to 50% from the maximal (control) viability (IC50). A standard toxicological parameter IC50 was calculated in each of the tested substances using GraphPad Prism software (version 5.02; GraphPad Software Inc., San Diego, CA, USA).

[12] = CCM4517, 24 h, read-out: MIC/IC90 E. coli CCM 4517
[13] = CCM4517, 48 h, read-out: MIC/IC90 E. coli CCM 4517

| Structure (SMILES) | MIC [1] [µM] | inhibition at 10 µM [2] [%] | MIC ([3]; 235/80, 168 h, 7 d) [µM] | MIC ([3]; 235/80, 336 h, 14 d) [µM] | MIC ([3]; 235/80, 504 h, 21 d) [µM] | MIC [4, 12] [µM] | MIC [4, 13] [µM] | MIC ([5]; CCM4516, 24 h) [µM] | MIC ([5]; CCM4516, 48 h) [µM] | MIC ([6]; SP.J14365/08, 24 h) [µM] | MIC ([6]; SP.J14365/08, 48 h) [µM] | MIC ([7]; 24 h) [µM] | MIC ([7]; 48 h) [µM] | MIC ([8]; H6966/08, 24 h) [µM] | MIC ([8]; H6966/08, 48 h) [µM] | MIC ([9]; 330/88, 336 h, 14 d) [µM] | MIC ([9]; 330/88, 504 h, 21 d) [µM] | MIC ([10]; 336 h, 14 d) [µM] | MIC ([10]; 504 h, 21 d) [µM] | MIC ([11]; 168 h, 7 d) [µM] | also measured |
| --- | --- | --- | --- | --- | --- | --- | --- | --- | --- | --- | --- | --- | --- | --- | --- | --- | --- | --- | --- | --- | --- |
| O=C(Oc1cc(Cl)ccc1C(=O)Nc1cccc(Br)c1)c1ccc(C(F)(F)F)cc1 [1h] | < 1 | ≥ 20 | 4 (≈ 1.99 µg/mL) | 8 (≈ 3.99 µg/mL) | 8 (≈ 3.99 µg/mL) | > 500 | > 500 | 0.98 (≈ 0.489 µg/mL) | 0.98 (≈ 0.489 µg/mL) | 31.2 (≈ 15.6 µg/mL) | 250 (≈ 125 µg/mL) | 0.49 (≈ 0.244 µg/mL) | 0.98 (≈ 0.489 µg/mL) | 0.49 (≈ 0.244 µg/mL) | 0.98 (≈ 0.489 µg/mL) | 8 (≈ 3.99 µg/mL) | 16 (≈ 7.98 µg/mL) | 4 (≈ 1.99 µg/mL) | 8 (≈ 3.99 µg/mL) | 2 (≈ 0.997 µg/mL) | MIC ([11]; 336 h, 14 d): 8 µM (≈ 3.99 µg/mL); MIC ([11]; 504 h, 21 d): 8 µM (≈ 3.99 µg/mL) |
| O=C(Oc1ccc(Cl)cc1C(=O)Nc1cccc(F)c1)c1ccc(C(F)(F)F)cc1 [1k] | < 1 | ≥ 20 | 8 (≈ 3.5 µg/mL) | 16 (≈ 7 µg/mL) | 16 (≈ 7 µg/mL) | > 250 | > 250 | 3.9 (≈ 1.71 µg/mL) | 3.9 (≈ 1.71 µg/mL) | 31.2 (≈ 13.7 µg/mL) | > 250 | 0.98 (≈ 0.429 µg/mL) | 1.95 (≈ 0.854 µg/mL) | 3.9 (≈ 1.71 µg/mL) | 3.9 (≈ 1.71 µg/mL) | 16 (≈ 7 µg/mL) | 32 (≈ 14 µg/mL) | 8 (≈ 3.5 µg/mL) | 8 (≈ 3.5 µg/mL) | 8 (≈ 3.5 µg/mL) | MIC ([11]; 336 h, 14 d): 16 µM (≈ 7 µg/mL); MIC ([11]; 504 h, 21 d): 16 µM (≈ 7 µg/mL) |
| O=C(Oc1cc(Cl)ccc1C(=O)Nc1ccc(C(F)(F)F)cc1)c1ccc(C(F)(F)F)cc1 [1p] | < 1 | 17 ± 2.3 | 2 (≈ 0.976 µg/mL) | 2 (≈ 0.976 µg/mL) | 4 (≈ 1.95 µg/mL) | 31.2 (≈ 15.2 µg/mL) | 250 (≈ 122 µg/mL) | 0.49 (≈ 0.239 µg/mL) | 0.98 (≈ 0.478 µg/mL) | 0.49 (≈ 0.239 µg/mL) | 3.9 (≈ 1.9 µg/mL) | 0.49 (≈ 0.239 µg/mL) | 0.98 (≈ 0.478 µg/mL) | 0.49 (≈ 0.239 µg/mL) | 0.98 (≈ 0.478 µg/mL) | 2 (≈ 0.976 µg/mL) | 8 (≈ 3.9 µg/mL) | 2 (≈ 0.976 µg/mL) | 2 (≈ 0.976 µg/mL) | 1 (≈ 0.488 µg/mL) | IC50 (HepG2 cells): 1770 nM; MIC ([4]; CCM4517, time not stated, read-out: MIC E. coli (partial susceptibility)): 31.2 µM (≈ 15.2 µg/mL); MIC ([11]; 336 h, 14 d): 4 µM (≈ 1.95 µg/mL); MIC ([11]; 504 h, 21 d): 4 µM (≈ 1.95 µg/mL) |
